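Assay format: 96-well plates, 48-hour exposure. TGI: total growth inhibition.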

What all share (assay): NCI-60 cell line screen, 48 h
Assay [1] has as its system UO-31 renal.
In assay [2] the test system is SF-268 CNS.
The test system of assay [3] is NCI-H460 lung.
Assay [4] relates to HOP-92 NSCLC.
Assay [5] concerns SNB-75 CNS.
The test system of assay [6] is RXF 393 renal.
The test system of assay [7] is 786-0 renal.
The subject of assay [8] is HL-60(TB) leukemia.

As for `O=C(O)C1=C(C(=O)Nc2ccc(NC(=O)C3=C(C(=O)O)C4C=CC3C4)cc2)C2C=CC1C2`, the TGI in assay [1], in assay [2], in assay [3], in assay [4], in assay [5] and in assay [6] was over 100 µM each time. Further, the TGI in assay [7] and in assay [8] was over 100 µM throughout.

Take `O=[N+]([O-])c1cccc(C2=NOC3C4CCC(C4)C23)c1` (centres undefined): the TGI in assay [1], in assay [2], in assay [3], in assay [4], in assay [5] and in assay [7] was over 100 µM each time.

For the molecule `Cc1ccccc1-n1c(C)nc(-c2ccccc2)cc1=O`, the TGI in assay [1], in assay [2], in assay [3], in assay [4], in assay [5] and in assay [6] was over 100 µM each time. The TGI in assay [7] and in assay [8] was over 100 µM throughout.

As for `N#CC1=C(Cl)NC(Cl)=C(C#N)C1c1c(Cl)cccc1Cl`, the TGI in assay [1] is over 100 µM; in assay [2], 99.6 µM; in assay [3], 38.3 µM; in assay [4], 80 µM; in assay [5], over 100 µM; in assay [6], 59 µM. In addition, the TGI in assay [7] worked out at 68.5 µM; in assay [8], 37.5 µM.

`O=C(O)c1ccccc1NC(=O)C1CCCCC1`: the TGI in assay [1], in assay [2], in assay [3], in assay [4], in assay [5] and in assay [7] was over 100 µM each time. The same molecule gave a TGI in assay [8] of over 100 µM.

Turning to `CCC(Oc1ccc(OC)c2ccccc(=O)c12)C(=O)O` (centres undefined), the TGI in assay [1], in assay [2], in assay [3], in assay [5], in assay [6] and in assay [7] was over 100 µM each time. The TGI in assay [8] is over 100 µM.

Regarding `COC(=O)C1=CC2OC1(C)CCC2=O` (centres undefined), the TGI in assay [1], in assay [2], in assay [3], in assay [5], in assay [6] and in assay [7] was over 100 µM in each case. In assay [8], this molecule had a TGI of 80.4 µM.

In the case of `Cc1cccc2nc3cccc(C(=O)NCCN(C)C)c3nc12`, the TGI in assay [1] came to 1.56 µM; in assay [2] it was 9.2 µM; in assay [3], 16.5 µM; in assay [4] it was 4.12 µM; in assay [5] it was 3.04 µM; in assay [6] it was 2.99 µM. The TGI was found to be 14.6 µM in assay [7] and 12 µM in assay [8].

For the molecule `COc1ccc2c(c1OC)C(=O)c1cnccc1C2=O`, the TGI in assay [1], in assay [3], in assay [4], in assay [5], in assay [6] and in assay [7] was over 100 µM in each case. Also, the TGI in assay [8] was over 100 µM.

Consider `CCC(=O)N/N=C(\C=C\c1cccc(O)c1)c1sc(Nc2ccc(C)cc2[N+](=O)[O-])nc1C`, for which the TGI in assay [1] was over 100 µM; in assay [2] it was over 100 µM; in assay [3], over 100 µM; in assay [4], 27.5 µM; in assay [5], over 100 µM; in assay [6], over 100 µM. Also, the TGI in assay [7] and in assay [8] was over 100 µM each time.

Turning to `CC(C)c1cc(OCC(O)CO)cc(C(C)C)c1` (centres undefined), the TGI in assay [1], in assay [2], in assay [3], in assay [4], in assay [5] and in assay [6] was over 100 µM throughout. Also, the TGI in assay [7] and in assay [8] was over 100 µM each time.

Consider `Cc1cc(Cl)ccc1C1OC(=O)c2c1ccc1ccccc21` (centres undefined), for which the TGI in assay [1], in assay [2], in assay [3], in assay [4], in assay [5] and in assay [7] was over 100 µM each time. In assay [8], this molecule yielded a TGI of over 100 µM.

As for `O=C1NC(=O)C2C1N(Cc1ccccc1)C(=O)N2Cc1ccccc1` (centres undefined), the TGI in assay [1], in assay [2], in assay [3], in assay [4], in assay [5] and in assay [6] was over 100 µM in each case. Besides, the TGI in assay [7] and in assay [8] was over 100 µM throughout.

With `O=C1C=CC(CC(=O)c2ccc3ccccc3c2)O1` (centres undefined), the TGI was determined as 39.2 µM in assay [1]; 39.9 µM in assay [2]; 55.2 µM in assay [3]; 47 µM in assay [4]; 91.2 µM in assay [5]; 36.6 µM in assay [6]. For the same molecule, the TGI in assay [7] came out at 39.1 µM; in assay [8] it was 37.3 µM.

As to `Nc1n[nH]c(CCc2nc(N)n[nH]2)n1`, the TGI in assay [1], in assay [2], in assay [3], in assay [4], in assay [5] and in assay [6] was over 100 µM throughout. The TGI in assay [7] and in assay [8] was over 100 µM in each case.

Turning to `O=C(/C=C1/Nc2ccc([N+](=O)[O-])cc2NC1O)c1cccc([N+](=O)[O-])c1` (centres undefined), the TGI in assay [1] is over 100 µM; in assay [2], over 100 µM; in assay [3], over 100 µM; in assay [4] it was over 100 µM; in assay [5], over 100 µM; in assay [6], 65.4 µM. Also, the TGI in assay [7] is 47.8 µM; in assay [8], over 100 µM.

Consider `O=C(Nc1ccn(CCI)c(=O)n1)c1ccccc1`, for which the TGI in assay [1], in assay [2], in assay [3], in assay [4], in assay [5] and in assay [6] was over 100 µM each time. The TGI in assay [7] and in assay [8] was over 100 µM each time.

For the origin of these results see PubChem BioAssay (NCI).
